From patent publication US7960427B2, “5-hydroxyindole-3-carboxylate derivatives and uses thereof” (priority 2004, dated 2011) come the findings set out here.

One data set relates to 2.2.15 cells. Nature of the data set: Cytotoxicity (TC50) in 2.2.15 cells. Format: cell-based. How it is done: (§1) All compounds were evaluated for their anti-HBV activities, namely the ability to inhibit the replication of HBV DNA and the production of HBsAg and HBeAg in HBV-infected 2.2.15 cells.
(§2) The samples were dissolved in DMSO for appropriate concentrations, and then each was diluted 3-fold with culture medium. The 2.2.15 cells were planted into 96-well culture plates. […] The culture supernatants and 2.2.15 cells were collected respectively on the 8th plant day. The secretion concentrations of HBsAg and HBeAg in the culture supernatants were measured by RIA on SPRIA Kit for Detection of HBsAg and HBeAg (Beijing North Institute of Biological Technology), and the replication of HBV DNA was measured by dot hybridization with a^32PdCTP (FuRui Biological Technology Ltd., China).

The next data set concerns HBV DNA. Nature of the data set: In vitro anti-HBV activity: replication of HBV DNA in 2.2.15 cells (dot hybridization). The following applies: for IC50: Hepatitis B virus, read-out: DNA replication IC50; for DNA replication SI: selectivity index. Format: cell-based, Hepatitis B virus (HBV). How it is done:
as §1, §2

The target of the next data set is T1, HIV-1 protease (Human immunodeficiency virus type 1 group M subtype B, UniProt P04585).
T1 construct: The genetically engineered target enzyme (HIV-1 protease, preserved at −85° C.)
Nature of the data set: Anti-HIV-1 protease activity (fluorescence labeled substrate). Format: biochemical. The conditions noted are these: for inhibition ratio at 0.5 ug/ml: sample concentration 0.5 ug/ml; for inhibition ratio at 2.0 ug/ml: sample concentration 2.0 ug/ml; for inhibition ratio at 10 ug/ml: sample concentration 10 ug/ml; for inhibition ratio at 50 ug/ml: sample concentration 50 ug/ml; for inhibition ratio at 250 ug/ml: sample concentration 250 ug/ml. How it is done:
HIV-1 protease can cut the fluorescence labeled substrate under optimal condition and reaction system, so the activity of enzyme is determined by the fluorescence in the product of enzymatic reaction. The samples are added into the reaction system to observe the inhibitive effect on the enzyme.
The samples and the reference drug Indinavir ([…].) were dissolved in DMSO or redistilled water for appropriate concentration. Each was diluted 5-fold and then added into the buffer containing fluorescence labeled substrate (MP Co.). The genetically engineered target enzyme (HIV-1 protease, preserved at −85° C.) was added to the buffer and incubated under the optimal reaction condition. The fluorescence was determined by FLUO star Galaxy fluorometer.

≈ marks a conversion by molar mass, not a printed value.

`Nc1ccn([C@@H]2CS[C@H](CO)O2)c(=O)n1` [Example 3TC, Lamivudine, reference compound] came in with a TC50 in the data set with 2.2.15 cells of 1600 µg/mL (≈ 6980 µM). Also, the IC50 (usually the concentration at which inhibition is half-maximal) in the data set with HBV DNA stood at 228 µg/mL (≈ 994 µM).

Take `CCOC(=O)c1c(C[S+]([O-])c2cccc(Cl)c2)n(C)c2cc(Br)c(O)c(CN3CCOCC3)c12` (centres unmarked) [Example 59, Ethyl 6-bromo-5-hydroxy-1-methyl-4-(morpholinomethyl)-2-[(3-chlorophenyl)sulfinylmethyl]-1H-indole-3-carboxylate]: the TC50 in the data set with 2.2.15 cells turned out to be 288.68 µg/mL (≈ 507 µM). In addition, in the data set with HBV DNA, the IC50 amounted to 26.6 µg/mL (≈ 46.7 µM) and the “DNA replication SI” value was determined as 10.8.

In the data set on 2.2.15 cells, `CCOC(=O)c1c(C[S+]([O-])Cc2ccc(F)cc2)n(C)c2cc(Br)c(O)c(CN3CCOCC3)c12.Cl` (centres unmarked) [Example 64, Ethyl 6-bromo-5-hydroxy-1-methyl-4-(morpholinomethyl)-2-[(4-fluorobenzyl)sulfinylmethyl]-1H-indole-3-carboxylate hydrochloride] yielded a TC50 of 24.69 µg/mL. In addition, in the data set with HBV DNA, the IC50 is 0.76 µg/mL and the “DNA replication SI” value is 32.48.

The compound `CCOC(=O)c1c(C[S+]([O-])Cc2ccoc2)n(C)c2ccc(O)c(CN3CCCCC3)c12.Cl` (centres unmarked) [Example 77, Ethyl 5-hydroxy-1-methyl-4-(piperidinomethyl)-2-[(3-furylmethyl)sulfinylmethyl]-1H-indole-3-carboxylate hydrochloride] yielded a TC50 with 2.2.15 cells of 74.07 µg/mL. Further, in the data set with HBV DNA, the IC50 came to 18.1 µg/mL and the “DNA replication SI” value is on record as 4.09.

In the case of `CCOC(=O)c1c(C[S+]([O-])Cc2ccc(F)cc2)n(C)c2cc(Br)c(O)c(CN(C)C)c12` (centres unmarked) [Example 80, Ethyl 6-bromo-4-[(dimethylamino)methyl]-5-hydroxy-1-methyl-2-[(4-fluorobenzyl)sulfinylmethyl]-1H-indole-3-carboxylate], the TC50 in the data set on 2.2.15 cells is <0.91 µg/mL. In the data set on HBV DNA, the IC50 worked out at 0.27 µg/mL (≈ 0.514 µM) and the “DNA replication SI” value was 3.37.

With `CCOC(=O)c1c(C[S+]([O-])Cc2cccc(F)c2)n(C)c2cc(Br)c(O)c(CN(C)C)c12` (centres unmarked) [Example 81, Ethyl 6-bromo-4-[(dimethylamino)methyl]-5-hydroxy-1-methyl-2-[(3-fluorobenzyl)sulfinylmethyl]-1H-indole-3-carboxylate], the TC50 in the data set on 2.2.15 cells was 35.61 µg/mL (≈ 67.8 µM). Further, in the data set with HBV DNA, the IC50 was 0.715 µg/mL (≈ 1.36 µM) and the “DNA replication SI” value came out at 49.8.

`CCOC(=O)c1c(CS(=O)(=O)Cc2ccc(F)cc2)n(C)c2cc(Br)c(O)c(CN3CCCC3)c12` [Example 84, Ethyl 6-bromo-5-hydroxy-1-methyl-4-(1-pyrrolidinylmethyl)-2-[(4-fluorobenzyl)sulfonylmethyl]-1H-indole-3-carboxylate] displayed a TC50 in the data set with 2.2.15 cells of 24.69 µg/mL (≈ 43.5 µM). For the same compound, in the data set with HBV DNA, the IC50 was 0.58 µg/mL (≈ 1.02 µM) and the “DNA replication SI” value is reported as 42.57.

Take `CCOC(=O)c1c(CS(=O)(=O)Cc2ccco2)n(C2CC2)c2ccc(O)c(CN3CCCC3)c12` [Example 85]: the TC50 in the data set on 2.2.15 cells is 14.26 µg/mL (≈ 29.3 µM). Moreover, in the data set with HBV DNA, the IC50 is 1.52 µg/mL (≈ 3.12 µM) and the “DNA replication SI” value is given as 9.38.

With `CCOC(=O)c1c(C[S+]([O-])Cc2ccc(F)cc2)n(C)c2cc(Br)c(O)c(CN3CCCCC3)c12` (centres unmarked) [Example 86, Ethyl 6-bromo-5-hydroxy-1-methyl-4-(piperidinomethyl)-2-[(4-fluorobenzyl)sulfinylmethyl]-1H-indole-3-carboxylate], in the data set on 2.2.15 cells, the TC50 stood at 7.13 µg/mL (≈ 12.6 µM). Moreover, in the data set on HBV DNA, the IC50 amounted to 0.64 µg/mL (≈ 1.13 µM) and the “DNA replication SI” value was found to be 11.14.

`CCOC(=O)c1c(C[S+]([O-])Cc2cccc(F)c2)n(C)c2cc(Br)c(O)c(CN3CCOCC3)c12` (centres unmarked) [Example 87, Ethyl 6-bromo-5-hydroxy-1-methyl-4-(morpholinomethyl)-2-[(3-fluorobenzyl)sulfinylmethyl]-1H-indole-3-carboxylate] came in with a TC50 with 2.2.15 cells of 21.39 µg/mL (≈ 37.7 µM). Also, in the data set on HBV DNA, the IC50 came out at 0.53 µg/mL (≈ 0.934 µM) and the “DNA replication SI” value came to 40.35.

Consider `CCOC(=O)c1c(C[S+]([O-])c2ccc(F)cc2)n(C2CC2)c2cc(Br)c(O)c(Cn3ccnc3)c12` (centres unmarked) [Example 117, Ethyl 6-bromo-1-cyclopropyl-5-hydroxy-4-[(1-imidazoly)methyl]-2-[(4-fluorophenyl)sulfinylmethyl]-1H-indole-3-carboxylate], for which the TC50 in the data set on 2.2.15 cells is 55.56 µg/mL (≈ 99.1 µM). In the data set with HBV DNA, the IC50 was 11.4 µg/mL (≈ 20.3 µM) and the “DNA replication SI” value amounted to 4.87.

With `CCOC(=O)c1c(C[S+]([O-])c2ccc(F)c(F)c2)n(C2CC2)c2cc(Br)c(O)c(Cn3ccnc3)c12` (centres unmarked) [Example 119, Ethyl 6-bromo-1-cyclopropyl-5-hydroxy-4-[(1-imidazolyl)methyl]-2-[(3,4-difluorophenyl)sulfinylmethyl]-1H-indole-3-carboxylate], in the data set on 2.2.15 cells, the TC50 was determined as 21.11 µg/mL (≈ 36.5 µM). Also, in the data set with HBV DNA, the IC50 is 3.6 µg/mL (≈ 6.22 µM) and the “DNA replication SI” value is recorded as 5.8.

As for `CCOC(=O)c1c(C[S+]([O-])c2ccccc2F)n(C)c2cc(Br)c(O)c(Cn3ccnc3)c12` (centres unmarked) [Example 125, Ethyl 6-bromo-5-hydroxy-4-[(1-imidazolyl)methyl]-1-methyl-2-[(2-fluorophenyl)sulfinylmethyl]-1H-indole-3-carboxylate], the TC50 in the data set on 2.2.15 cells was 48.1 µg/mL (≈ 90 µM). Also, in the data set on HBV DNA, the half-inhibitory concentration (IC50) came out at 8.76 µg/mL (≈ 16.4 µM) and the “DNA replication SI” value was 5.49.

For the compound `CCOC(=O)c1c(C[S+]([O-])Cc2ccco2)n(C2CC2)c2cc(Br)c(O)c(Cn3ccnc3)c12` (centres unmarked) [Example 130, Ethyl 6-bromo-1-cyclopropyl-5-hydroxy-4-[(1-imidazolyl)methyl]-2-[(2-furylmethyl)sulfinylmethyl]-1H-indole-3-carboxylate], the TC50 with 2.2.15 cells came out at 24.69 µg/mL (≈ 45.2 µM). In addition, in the data set on HBV DNA, the IC50 is 5.94 µg/mL (≈ 10.9 µM) and the “DNA replication SI” value is given as 4.16.

As to `CCOC(=O)c1c(C[S+]([O-])c2ccccc2)n(C)c2cc(Br)c(O)c(Cn3ccnc3C)c12` (centres unmarked) [Example 131, Ethyl 6-bromo-5-hydroxy-1-methyl-4-[(2-methyl-1-imidazolyl)methyl]-2-(phenylsulfinylmethyl)-1H-indole-3-carboxylate], at HIV-1 protease, the IC50 was 294 µM, the “inhibition ratio at 0.5 ug/ml” value is reported as 4.6, the “inhibition ratio at 2.0 ug/ml” value was 14.6 and the “inhibition ratio at 10 ug/ml” value is reported as 7.1. Further, at HIV-1 protease, the “inhibition ratio at 50 ug/ml” value stood at 7.7 and the “inhibition ratio at 250 ug/ml” value came to 55.1.

As for `CCOC(=O)c1c(C[S+]([O-])c2ccc(F)c(F)c2)n(C)c2cc(Br)c(O)c(Cn3ccnc3C)c12.Cl` (centres unmarked) [Example 133, Ethyl 6-bromo-5-hydroxy-1-methyl-4-[(2-methyl-1-imidazolyl)methyl]-2-[(3,4-difluorophenyl)sulfinylmethyl]-1H-indole-3-carboxylate hydrochloride], the TC50 in the data set with 2.2.15 cells was 40.0 µg/mL. In addition, in the data set with HBV DNA, the IC50 stood at 6.37 µg/mL and the “DNA replication SI” value was found to be 6.28.

Compound `CCOC(=O)c1c(C[S+]([O-])c2cccc(C)c2)n(C)c2cc(Br)c(O)c(Cn3ccnc3C)c12` (centres unmarked) [Example 134, Ethyl 6-bromo-5-hydroxy-1-methyl-4-[(2-methyl-1-imidazolyl)methyl]-2-[(3-methylphenyl)sulfinylmethyl]-1H-indole-3-carboxylate] yielded a TC50 with 2.2.15 cells of 53.42 µg/mL (≈ 98.1 µM). In the data set with HBV DNA, the IC50 turned out to be 3.8 µg/mL (≈ 6.98 µM) and the “DNA replication SI” value is recorded as 19.1.

Regarding `CCOC(=O)c1c(C[S+]([O-])c2ccccc2OC)n(C)c2cc(Br)c(O)c(Cn3ccnc3C)c12.Cl` (centres unmarked) [Example 135, Ethyl 6-bromo-5-hydroxy-1-methyl-4-[(2-methyl-1-imidazolyl)methyl]-2-[(2-methoxyphenyl)sulfinylmethyl]-1H-indole-3-carboxylate hydrochloride], the TC50 with 2.2.15 cells stood at 53.42 µg/mL. In the data set with HBV DNA, the IC50 is 2.4 µg/mL and the “DNA replication SI” value is given as 22.3.

As for `CCOC(=O)c1c(C[S+]([O-])c2c(Cl)cccc2Cl)n(C2CC2)c2cc(Br)c(O)c(Cn3ccnc3C)c12` (centres unmarked) [Example 137, Ethyl 6-bromo-1-cyclopropyl-5-hydroxy-4-[(2-methyl-1-imidazolyl)methyl]-2-[(2,6-dichlorophenyl)sulfinylmethyl]-1H-indole-3-carboxylate], the TC50 in the data set on 2.2.15 cells is 160.2 µg/mL (≈ 256 µM). For the same compound, in the data set with HBV DNA, the IC50 is 35.5 µg/mL (≈ 56.7 µM) and the “DNA replication SI” value is recorded as 4.51.

With `CCOC(=O)c1c(CS(=O)(=O)c2ccc(F)c(F)c2)n(C2CC2)c2cc(Br)c(O)c(Cn3ccnc3)c12` [Example 160, Ethyl 6-bromo-1-cyclopropyl-5-hydroxy-4-[(1-imidazolyl)methyl]-2-[(3,4-difluorophenyl)sulfonylmethyl]-1H-indole-3-carboxylate], on HIV-1 protease, the IC50 was 21.3 µM, the “inhibition ratio at 0.5 ug/ml” value is 6.1, the “inhibition ratio at 2.0 ug/ml” value worked out at 11.7 and the “inhibition ratio at 10 ug/ml” value amounted to 29.1. Besides, on HIV-1 protease, the “inhibition ratio at 50 ug/ml” value is listed as 71.8 and the “inhibition ratio at 250 ug/ml” value came out at 97.8.
